Laboratory results published in patent US9732094B2, “Arylquinazolines” (Merck Patent GmbH, priority 2013, dated 2017).
pIC50, pKi: −log10 of the molar value. Where two headings read alike, the source gives them in different places.

Tests used:
DNA-PK = DNA-PK (Homo sapiens (Human), UniProt P78527); assay: DNA-PK assay (biochemical), flashplate 33P-ATP kinase assay
Method in brief: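 Reactions ran in streptavidin-coated flashplates and were halted by 200 mM EDTA, with a further 30 min at room temperature before saline washing.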

Kv11.1 (hERG) = Kv11.1 (hERG) (Homo sapiens (Human), UniProt Q12809); assay: Kv11.1 (hERG) ion channel activity (patch clamp assay), HEK293 cells transfected with hERG gene
Kv11.1 (hERG), sequence (Q12809 whole entry): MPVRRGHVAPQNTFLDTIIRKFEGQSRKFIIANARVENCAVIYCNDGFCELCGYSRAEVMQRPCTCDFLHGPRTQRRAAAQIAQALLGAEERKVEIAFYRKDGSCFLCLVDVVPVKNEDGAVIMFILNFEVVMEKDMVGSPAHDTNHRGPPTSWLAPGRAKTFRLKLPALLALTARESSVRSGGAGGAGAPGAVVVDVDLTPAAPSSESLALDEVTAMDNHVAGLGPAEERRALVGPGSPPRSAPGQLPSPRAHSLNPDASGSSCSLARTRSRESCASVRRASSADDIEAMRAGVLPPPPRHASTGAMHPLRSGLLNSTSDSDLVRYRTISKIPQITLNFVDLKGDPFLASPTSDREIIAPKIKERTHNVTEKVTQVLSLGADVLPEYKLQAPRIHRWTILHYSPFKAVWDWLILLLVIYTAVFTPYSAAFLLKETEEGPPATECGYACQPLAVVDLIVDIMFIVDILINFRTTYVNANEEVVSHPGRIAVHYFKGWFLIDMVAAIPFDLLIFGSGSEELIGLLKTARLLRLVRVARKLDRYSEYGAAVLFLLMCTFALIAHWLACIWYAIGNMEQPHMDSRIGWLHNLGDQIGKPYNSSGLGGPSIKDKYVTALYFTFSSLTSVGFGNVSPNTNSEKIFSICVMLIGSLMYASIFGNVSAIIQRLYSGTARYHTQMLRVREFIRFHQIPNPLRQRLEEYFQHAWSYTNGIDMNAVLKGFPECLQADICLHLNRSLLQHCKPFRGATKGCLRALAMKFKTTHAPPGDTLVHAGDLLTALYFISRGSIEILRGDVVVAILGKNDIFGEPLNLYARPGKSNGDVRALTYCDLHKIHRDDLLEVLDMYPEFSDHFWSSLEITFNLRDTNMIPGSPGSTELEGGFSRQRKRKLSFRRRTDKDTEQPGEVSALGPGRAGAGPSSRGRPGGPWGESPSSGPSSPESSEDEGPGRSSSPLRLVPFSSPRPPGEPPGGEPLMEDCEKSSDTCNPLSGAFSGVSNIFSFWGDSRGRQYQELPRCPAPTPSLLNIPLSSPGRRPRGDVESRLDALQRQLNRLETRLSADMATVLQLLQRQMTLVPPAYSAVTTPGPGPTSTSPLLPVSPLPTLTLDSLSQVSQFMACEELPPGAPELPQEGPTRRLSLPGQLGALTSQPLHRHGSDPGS

[1] = biological target: DNA-PK phosphorylation at serine 2056 (Homo sapiens (Human), UniProt P78527); assay: DNA-PK phosphorylation at serine 2056 (cellular), bleomycin-treated HCT116 cells, ELISA; format: cell-based; settings: read-out: IC50 pDNA-PK
Method in brief: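 HCT116 cells were treated with 10 μM bleomycin plus test compounds for six hours at 37 °C. Phospho-Ser2056 DNA-PK measured by chemiluminescent ELISA, normalised to total DNA-PKcs signal; DMSO control as blank.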

[2] = read-out: Ki [Kv1.11 hERG], patch clamp, HEK293 transfected with hERG gene
[3] = cellular, HCT116 cells, 10 μM bleomycin, six hours
[4] = read-out: Ki [Kv1.11 hERG], Table 7
[5] = Ki [Kv1.11 hERG], hERG patch clamp assay (cells without asterisk)
[6] = cellular DNA-PK phosphorylation at serine 2056, HCT116
[7] = read-out: Ki [Kv1.11 hERG], hERG patch clamp assay (cells without asterisk)

## Cc1cc(F)c(-c2ncnc3cc(N4CCOCC4)ccc23)cc1C(O)c1nccs1 (stereo not drawn) [Example 209, [4-Fluoro-2-methyl-5-(7-morpholin-4-yl-quinazolin-4-yl)-phenyl]thiazol-2-ylmethanol]
DNA-PK; enzymatic, 5 μM ATP
  pIC50: < 7.52
Kv11.1 (hERG); [2]
  pKi: < 4.60
[1]; [3]
  pIC50: 4.52 to 5.00

## Cc1cc(F)c(-c2ncnc3cc(N4CCOCC4)ccc23)cc1C(O)c1nccs1 (stereo not drawn) [Example 210, [4-Fluoro-2-methyl-5-(7-morpholin-4-yl-quinazolin-4-yl)-phenyl]thiazol-2-ylmethanol]
DNA-PK; enzymatic, 5 μM ATP
  pIC50: 8.15 to 8.52
Kv11.1 (hERG); [2]
  pKi: < 4.60
[1]; [3]
  pIC50: 5.30 to 6.30

## OC(c1ccc(F)c(-c2ncnc3cc(N4CCOCC4)ccc23)c1)c1nccs1 (stereo not drawn) [Example 211, [4-Fluoro-3-(7-morpholin-4-yl-quinazolin-4-yl)-phenyl]thiazol-2-ylmethanol]
DNA-PK; enzymatic, 5 μM ATP
  pIC50: 8.15 to 8.52
Kv11.1 (hERG); [2]
  pKi: < 4.60
[1]; [3]
  pIC50: 5.30 to 6.30

## C#Cc1nc(-c2cc(C(O)c3nccs3)ccc2F)c2ccc(N3CCOCC3)cc2n1 (stereo not drawn) [Example 215, [3-(2-Ethynyl-7-morpholin-4-yl-quinazolin-4-yl)-4-fluorophenyl]-thiazol-2-yl-methanol]
DNA-PK; enzymatic, 5 μM ATP
  pIC50: > 8.52
Kv11.1 (hERG); [2]
  pKi: > 5.00
[1]; [3]
  pIC50: 5.00 to 5.30

## C#Cc1nc(-c2cc(C(O)c3nccs3)ccc2F)c2ccc(N3CCOCC3)cc2n1 (stereo not drawn) [Example 216, [3-(2-Ethynyl-7-morpholin-4-yl-quinazolin-4-yl)-4-fluorophenyl]-thiazol-2-yl-methanol]
DNA-PK; enzymatic, 5 μM ATP
  pIC50: > 8.52
Kv11.1 (hERG); Ki [Kv1.11 hERG], patch clamp, HEK293 transfected with hERG gene
  pKi: 4.82 to 5.00
[1]; [3]
  pIC50: 4.52 to 5.00

## OC(c1cccnc1)c1cc(-c2ncnc3cc(N4CCOCC4)ccc23)c(F)cc1F (stereo not drawn) [Example 217, [2,4-Difluoro-5-(7-morpholin-4-ylquinazolin-4-yl)phenyl]pyridin-3-ylmethanol]
DNA-PK; Table 7
  pIC50: 8.15 to 8.52
Kv11.1 (hERG); [4]
  pKi: < 4.60
[1]; Table 7, HCT116 cells
  pIC50: > 6.30

## OC(c1ccccn1)c1cc(-c2ncnc3cc(N4CCOCC4)ccc23)c(F)cc1F (stereo not drawn) [Example 218, [2,4-Difluoro-5-(7-morpholin-4-yl-quinazolin-4-yl)-phenyl]pyridin-2-yl-methanol]
DNA-PK; Table 7
  pIC50: 8.15 to 8.52
Kv11.1 (hERG); Ki [Kv1.11 hERG], Table 7
  pKi: 4.60 to 4.82
[1]; Table 7, HCT116 cells
  pIC50: > 6.30

## Cn1nc(C(O)c2cc(-c3ncnc4cc(N5CCOCC5)ccc34)c(F)cc2F)ccc1=O (stereo not drawn) [Example 219, 6-{[2,4-Difluoro-5-(7-morpholin-4-yl-quinazolin-4-yl)-phenyl]hydroxy-methyl}-2-methyl-2H-pyridazin-3-one]
DNA-PK; Table 7
  pIC50: 8.15 to 8.52
Kv11.1 (hERG); Ki [Kv1.11 hERG], Table 7
  pKi: 4.60 to 4.82
[1]; Table 7, HCT116 cells
  pIC50: 5.30 to 6.30

## Cn1nc(C(O)c2ccc(F)c(-c3ncnc4cc(N5CCOCC5)ccc34)c2F)ccc1=O (stereo not drawn) [Example 220, 6-{[2,4-Difluoro-3-(7-morpholin-4-yl-quinazolin-4-yl)-phenyl]hydroxy-methyl}-2-methyl-2H-pyridazin-3-one]
DNA-PK; Table 7
  pIC50: < 7.52
Kv11.1 (hERG); [4]
  pKi: < 4.60
[1]; Table 7, HCT116 cells
  pIC50: 5.00 to 5.30

## COc1ccc(C(O)c2cc(-c3ncnc4cc(N5CCOCC5)ccc34)c(F)cc2F)cn1 (stereo not drawn) [Example 221, [2,4-Difluoro-5-(7-morpholin-4-yl-quinazolin-4-yl)-phenyl]-(6-methoxy-pyridin-3-yl)methanol]
DNA-PK; Table 7
  pIC50: 8.15 to 8.52
Kv11.1 (hERG); Ki [Kv1.11 hERG], Table 7
  pKi: 4.60 to 4.82
[1]; Table 7, HCT116 cells
  pIC50: 5.30 to 6.30

## OC(c1ccc2ncnn2c1)c1cc(-c2ncnc3cc(N4CCOCC4)ccc23)c(F)cc1F (stereo not drawn) [Example 222, [2,4-Difluro-5-(7-morpholin-4-yl-quinazolin-4-yl)-phenyl]-[l,2,4]-triazolo[1,5-a]pyridin-6-ylmethanol]
DNA-PK; Table 7
  pIC50: 8.15 to 8.52
Kv11.1 (hERG); [4]
  pKi: < 4.60
[1]; Table 7, HCT116 cells
  pIC50: 5.30 to 6.30

## OC(c1cn2ccnc2cn1)c1cc(-c2ncnc3cc(N4CCOCC4)ccc23)c(F)cc1F (stereo not drawn) [Example 223, [2,4-Difluoro-5-(7-morpholin-4-yl-quinazolin-4-yl)-phenyl]imidazo-[1,2-a]pyrazin-6-yl-methanol]
DNA-PK; Table 7
  pIC50: 7.52 to 8.15
Kv11.1 (hERG); [4]
  pKi: < 4.60
[1]; Table 7, HCT116 cells
  pIC50: 5.30 to 6.30

## COc1ccc(C(O)c2cc(-c3ncnc4cc(N5CCOCC5)ccc34)c(F)cc2F)nc1 (stereo not drawn) [Example 224, [2,4-Difluoro-5-(7-morpholin-4-yl-quinazolin-4-yl)-phenyl]-(5-methoxy-pyridin-2-yl)methanol]
DNA-PK; Table 7
  pIC50: 8.15 to 8.52
Kv11.1 (hERG); Ki [Kv1.11 hERG], Table 7
  pKi: 4.60 to 4.82
[1]; Table 7, HCT116 cells
  pIC50: 5.30 to 6.30

## [2H]c1c(N2CCOCC2)cc2ncnc(-c3cc(C(O)c4nccnc4C)ccc3F)c2c1[2H] (stereo not drawn) [Example 226, [3-(5,6-Dideuterio-7-morpholino-quinazolin-4-yl)-4-fluorophenyl]-(3-melhylpyrazin-2-yl)-methanol]
DNA-PK; biochemical DNA-PK assay
  pIC50: 8.15 to 8.52
Kv11.1 (hERG); [5]
  pKi: < 4.60
[1]; [6]
  pIC50: > 6.30

## COc1ccc(C(O)c2cc(-c3ncnc4cc(N5CCOCC5)cnc34)c(F)cc2Cl)nn1 (stereo not drawn) [Example 227, [2-Chloro-4-fluoro-5-(7-morpholin-4-yl-pyrido[3,2-d}-pyrimidin-4-yl)-phenyl]-(6-methoxy-pyridazin-3-yl)-methanol]
DNA-PK; biochemical DNA-PK assay
  pIC50: 8.15 to 8.52
Kv11.1 (hERG); [7]
  pKi: < 4.60
[1]; [6]
  pIC50: 5.30 to 6.30

## COc1ccc(C(O)c2cc(-c3ncnc4cc(N5CCOCC5)cnc34)c(F)cc2Cl)nn1 (stereo not drawn) [Example 228, [2-Chloro-4-fluoro-5-(7-morpholin-4-yl-pyrido[3,2-d}-pyrimidin-4-yl)-phenyl]-(6-methoxy-pyridazin-3-yl)-methanol]
DNA-PK; biochemical DNA-PK assay
  pIC50: < 7.52
Kv11.1 (hERG); [7]
  pKi: < 4.60
[1]; [6]
  pIC50: 4.52 to 5.00

## CNC(=O)C(c1cc(-c2ncnc3cc(N4CCOCC4)ccc23)c(F)cc1Cl)c1nccnc1OC (stereo not drawn) [Example 229, 2-[2-Chloro-4-fluoro-5-(7-morpholin-4-yl-quinazolin-4-yl)-phenyl]-2-(3-methoxypyrazin-2-yl)-N-methyl-acetamide]
DNA-PK; biochemical DNA-PK assay
  pIC50: 7.52 to 8.15
Kv11.1 (hERG); [7]
  pKi: < 4.60
[1]; [6]
  pIC50: 5.30 to 6.30

## COc1nccnc1C(O)c1cc(-c2ncnc3cc(N4CCOCC4)cnc23)c(F)cc1Cl (stereo not drawn) [Example 231, [2-Chloro-4-fluoro-5-(7-morpholin-4-yl-pyrido[3,2-d}-pyrimidin-4-yl)-phenyl]-(3-methoxy-pyrazin-2-yl)-methanol]
DNA-PK; biochemical DNA-PK assay
  pIC50: 7.52 to 8.15
Kv11.1 (hERG); [7]
  pKi: < 4.60
[1]; [6]
  pIC50: 5.30 to 6.30

## COc1nccnc1C(O)c1cc(-c2ncnc3cc(N4CCOCC4)cnc23)c(F)cc1Cl (stereo not drawn) [Example 232, [2-Chloro-4-fluoro-5-(7-morpholin-4-yl-pyrido[3,2-d}-pyrimidin-4-yl)-phenyl]-(3-methoxy-pyrazin-2-yl)-methanol]
DNA-PK; biochemical DNA-PK assay
  pIC50: 7.52 to 8.15
Kv11.1 (hERG); [7]
  pKi: < 4.60
[1]; [6]
  pIC50: 4.52 to 5.00

## Cc1nccnc1[C@@H](O)c1ccc(F)c(-c2ncnc3cc(N4CCOCC4)cnc23)c1 [Example 233, (S)-[4-Fluoro-3-(7-morpholin-4-yl-pyrido[3,2-d}-pyrimidin-4-yl)-phenyl]-(3-methyl-pyrazin-2-yl)-methanol]
DNA-PK; biochemical DNA-PK assay
  pIC50: 7.52 to 8.15
Kv11.1 (hERG); [7]
  pKi: < 4.60
[1]; [6]
  pIC50: 4.52 to 5.00

## Cc1nccnc1[C@H](O)c1ccc(F)c(-c2ncnc3cc(N4CCOCC4)cnc23)c1 [Example 234, (R)-[4-Fluoro-3-(7-morpholin-4-yl-pyrido[3,2-d}-pyrimidin-4-yl)-phenyl]-(3-methyl-pyrazin-2-yl)-methanol]
DNA-PK; biochemical DNA-PK assay
  pIC50: > 8.52
Kv11.1 (hERG); [7]
  pKi: < 4.60
[1]; [6]
  pIC50: > 6.30

## Cc1nccnc1C(O)c1ccc(F)c(-c2ncnc3cc(N4CCOCC4)cnc23)c1 (stereo not drawn) [Example 237, [4-Fluoro-3-(7-morpholin-4-ylpyrido[3,2-d]pyrimidin-4-yl)phenyl]-(3-methylpyrazin-2-yl)methanol]
DNA-PK; biochemical DNA-PK assay
  pIC50: > 8.52
Kv11.1 (hERG); [5]
  pKi: 4.82 to 5.00
[1]; [6]
  pIC50: > 6.30

## [2H]C1([2H])OC([2H])([2H])C([2H])([2H])N(c2ccc3c(-c4cc(C(O)c5nccnc5C)ccc4F)ncnc3c2)C1([2H])[2H] (stereo not drawn) [Example 238, [4-Fluoro-3-[7-(2,2,3,3,5,5,6,6-octadeuteriomorpholin-4-yl)quinazolin-4-yl]phenyl]-(3-methyl-pyrazin-2-yl)-methanol]
DNA-PK; biochemical DNA-PK assay
  pIC50: > 8.52
Kv11.1 (hERG); [5]
  pKi: 4.60 to 4.82
[1]; [6]
  pIC50: > 6.30

## Cc1nccnc1C(O)c1cc(-c2ncnc3cc(N4CCOCC4)cnc23)c(F)cc1Cl (stereo not drawn) [Example 240, [2-Chloro-4-fluoro-5-(7-morpholin-4-yl-pyrido[3,2-d}-pyrimidin-4-yl)-phenyl]-(3-methyl-pyrazin-2-yl)-methanol]
DNA-PK; biochemical DNA-PK assay
  pIC50: 7.52 to 8.15
Kv11.1 (hERG); [7]
  pKi: < 4.60
[1]; [6]
  pIC50: 5.30 to 6.30

## [2H]C1([2H])OC([2H])([2H])C([2H])([2H])N(c2ccc3c(-c4cc(C(O)c5nccnc5OC)c(Cl)cc4F)ncnc3c2)C1([2H])[2H] (stereo not drawn) [Example 241, [2-Chloro-4-fluoro-5-[7-(2,2,3,3,5,5,6,6-octadeuteriomorpholin-4-yl)quinazolin-4-yl]phenyl]-(3-methoxypyrazin-2-yl)methanol]
DNA-PK; biochemical DNA-PK assay
  pIC50: > 8.52
Kv11.1 (hERG); [5]
  pKi: 4.82 to 5.00
[1]; [6]
  pIC50: > 6.30

## [2H]C1([2H])OC([2H])([2H])C([2H])([2H])N(c2ccc3c(-c4cc(C(O)c5nccnc5OC)c(Cl)cc4F)ncnc3c2)C1([2H])[2H] (stereo not drawn) [Example 242, [2-Chloro-4-fluoro-5-[7-(2,2,3,3,5,5,6,6-octadeuteriomorpholin-4-yl)quinazolin-4-yl]phenyl]-(3-methoxypyrazin-2-yl)methanol]
DNA-PK; biochemical DNA-PK assay
  pIC50: > 8.52
Kv11.1 (hERG); [5]
  pKi: 4.60 to 4.82
[1]; [6]
  pIC50: > 6.30

## [2H]C1([2H])OC([2H])([2H])C([2H])([2H])N(c2ccc3c(-c4cc([C@H](O)c5nccnc5C)ccc4F)ncnc3c2)C1([2H])[2H] [Example 243, (S)-[4-Fluoro-3-[7-(2,2,3,3,5,5,6,6-octadeuteriomorpholin-4-yl)quinazolin-4-yl]phenyl]-(3-methylpyrazin-2-yl)methanol]
DNA-PK; biochemical DNA-PK assay
  pIC50: 7.52 to 8.15
Kv11.1 (hERG); [7]
  pKi: 4.60 to 4.82
[1]; [6]
  pIC50: 5.30 to 6.30
